We go through 21 compounds from patent US8217084B2, “Medicinal products incorporating bound organosulfur groups” (Allium Vitalis Incorporated, priority 2004, dated 2012).

For data set [1] the following is noted: in vivo; cited from earlier work.
The conditions of data set [2]: cited from earlier work.
The conditions of data set [3]: n-octanol/water (stated for DADS); cited from earlier work.
The conditions of data set [4]: after 25 g fresh garlic or 60 mg pure allicin; cited from earlier work.
Data set [5] is described as follows: Reaction with hydrogen peroxide, HPLC. An excerpt: Hydrogen peroxide (H2O2) was chosen for use as the model oxidant because it is readily available, sufficiently reactive to produce the desired effects, and sufficiently stable to be readily observed. The availability of an inexpensive real-time probe for H2O2 measurement (the ABD-3001, which could be leased by the month from Universal Sensors Inc.) was also a consideration.
The specific ability of allyl mercaptan in this regard was deemed worthy of being experimentally investigated because further experiments were planned that would rely on this ability. […] Therefore, HPLC alone was used to measure the reactants and products.
In FIG. 7, the concentrations are reported as “uM allyl” to take into account the fact that each DADS molecule contains two allyl groups, while each AllylSH molecule has only one.
Another experiment was performed at approximate body temperature (37 degrees C.) and calculated membrane AllylSH concentration.

Data set [6] is described as follows: pH dependence of reaction rate with cysteine.
Data set [7] has as its system CYP2D6. The settings on record: in 30 minutes; cited from earlier work.
Data set [8] addresses CYP2E1 enzyme (Rattus norvegicus, UniProt P05182). The settings on record: cited from earlier work.
Data set [9] has as its system LDL. The settings on record: cited from earlier work.
The conditions of data set [10]: chemiluminescence assay; cited from earlier work.
For data set [11], the system named is total glutathione level of cells. The settings on record: cited from earlier work.
The conditions of data set [12]: cited from earlier work. The source holds these as a separate data set.
For data set [13] the following is noted: in vivo; cited from earlier work. The source holds these as a separate data set.
The conditions of data set [14]: cited from earlier work; for pKa: thiol group.
In data set [15] the test system is nematodes. The note with it: cited from earlier work.
For data set [16], the system named is E-coli O157:H7. The note with it: cited from earlier work.
Data set [17] concerns the target T1, papain (Carica papaya, UniProt P00784).
T1 sequence (P00784 134-345): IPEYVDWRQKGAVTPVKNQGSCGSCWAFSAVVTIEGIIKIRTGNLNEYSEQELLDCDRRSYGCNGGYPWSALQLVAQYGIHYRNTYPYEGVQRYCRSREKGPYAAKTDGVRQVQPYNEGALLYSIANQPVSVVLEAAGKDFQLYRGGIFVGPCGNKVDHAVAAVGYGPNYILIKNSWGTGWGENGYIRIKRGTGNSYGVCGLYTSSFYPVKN
The settings on record: cited from earlier work.

Data set [18] concerns glutathione content of cells. The note with it: daily dosage of 1000 mg; cited from earlier work.

Entries after “also recorded” stand apart in the source; their conditions may differ. Where two headings read alike, the source gives them in different places. Some results are limits rather than exact numbers.

Sequence of CYP2E1 enzyme (P05182 whole entry): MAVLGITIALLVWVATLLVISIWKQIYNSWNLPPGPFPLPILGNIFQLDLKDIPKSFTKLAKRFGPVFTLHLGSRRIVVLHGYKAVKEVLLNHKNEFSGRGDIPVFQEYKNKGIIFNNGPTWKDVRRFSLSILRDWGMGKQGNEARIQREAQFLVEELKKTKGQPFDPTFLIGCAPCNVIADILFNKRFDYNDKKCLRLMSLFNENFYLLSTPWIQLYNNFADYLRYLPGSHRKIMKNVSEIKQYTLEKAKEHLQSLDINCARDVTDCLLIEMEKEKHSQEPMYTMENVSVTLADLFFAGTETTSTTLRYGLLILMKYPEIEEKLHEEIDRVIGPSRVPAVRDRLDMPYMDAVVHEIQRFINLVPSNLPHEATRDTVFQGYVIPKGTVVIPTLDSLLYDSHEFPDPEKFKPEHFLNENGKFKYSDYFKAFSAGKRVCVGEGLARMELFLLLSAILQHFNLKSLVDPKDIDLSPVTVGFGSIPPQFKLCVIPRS

As to `C=CCSSC=CC[S+]([O-])CC=C` (mixture of isomers) [ajoene], in [1], the “production of breath AMS and acetone” value is “produce both breath AMS and acetone”.

On to `C=CCS[S+]([O-])CC=C` (stereo not shown) [Allicin, DiAllylThioSulfinate], for which, in data set [2], the “Reaction in Blood Half-life” value is less than 1 min and the “Reaction in Blood Product (moles)” value is “(1.6) moles”. Also, in data set [2] (red blood cells exposed to allicin), the “time to metabolize to allyl mercaptan” value is recorded as “less than one minute”. Further, in data set [3], the partition coefficient is 12.3. For the same compound, the “detectability in blood, urine, or stool” value in [4] is listed as “undetectable”.

Take `C=CCS` [AllylSH, AllylThiol]: the “formation of diallyl disulfide” value in data set [5] (0.85 mM AllylSH, 10 mM H2O2, 15 minute) is reported as “essentially linear with time”.

In the case of `C=CCSSCC=C` [DADS, Diallyl Disulfide], in data set [2], the “Reaction in Blood Half-life” value was 60 min and the “Reaction in Blood Product (moles)” value is on record as “(0.8) moles”. The “dependence of reaction rate with cysteine on pH” value in [6] was “dramatically increasing between pH 8 and 9”. For the same compound, the partition coefficient in [3] is listed as 25.0. In data set [7], the “conversion of DADS to allicin” value is recorded as “approximately 30%”. This compound showed an allicin yield in data set [5] (0.2 mM DADS, 0.022 mM AllylSH, 5.0 mM H2O2, 37 degrees C., 11 minutes) of 0.015 mM. In data set [5] (0.2 mM DADS, 5.0 mM H2O2, room temperature, no AllylSH), the “rate of allicin formation” value is listed as “essentially linear with time”. Moreover, the “inhibition of CYP2E1” value in data set [8] is listed as “potent inhibitor”. Besides, the “production of breath AMS and acetone” value in data set [1] is “produce both breath AMS and acetone”.

For `C=CCSCC=C` [DAS, diallyl sulfide], in data set [1], the “production of breath AMS and acetone” value is reported as “only produces breath acetone”.

Consider `C=CCSSSCC=C` [DATS, Diallyl Trisulfide], for which, in data set [2], the “Reaction in Blood Half-life” value is listed as 4 min and the “Reaction in Blood Product (moles)” value was “(0.8) moles”. For the same compound, the “production of breath AMS and acetone” value in [1] was “produce both breath AMS and acetone”.

Regarding `C=CCSC[C@H](NC(C)=O)C(=O)O` [N-acetyl-S-allylcysteine], the “effect on Cu2+ induced LDL oxidation” value in data set [9] is given as “significantly reduce”.

As for `C=CCSC[C@H](N)C(=O)O` [SAC, S-allylcysteine], in [9], the “effect on Cu2+ induced LDL oxidation” value was “significantly reduce”. Further, the “production of breath AMS and acetone” value in [1] was “produces no breath AMS or acetone”.

For `C=CCSSC[C@H](N)C(=O)O` [SAMC, S-AllylMercaptoCysteine], the “antioxidant or pro-oxidant activity” value in data set [10] is recorded as “most effective antioxidants”. Moreover, the “total glutathione level of cells” value in [11] is “significantly increase the total glutathione level of cells; also recorded: significant increases the total glutathione level of cells”. Besides, in data set [2], the “Reaction in Blood Half-life” value is on record as 3 min and the “Reaction in Blood Product (moles)” value is “(0.8) moles”. Moreover, the “protection from acetaminophen poisoning” value in data set [12] (post treatment, single dose 200 mg/kg) is given as “protective”. Further, in data set [12] (pretreatment), the “protection from acetaminophen poisoning” value is on record as “protect mice from acetaminophen poisoning”. The “effect on Cu2+ induced LDL oxidation” value in [9] was “significantly reduce”. For the same compound, in data set [1], the “bioavailable (ingested)” value was 100%; the “production of breath AMS and acetone” value was “produce both breath AMS and acetone”.

With `Cc1c(C)c2c(c(C)c1O)CC[C@@](C)(CCC[C@H](C)CCC[C@H](C)CCCC(C)C)O2` [alpha-tocopherol], the partition coefficient in data set [3] was 550.

As for `NCCS` [cysteamine], the radioprotective effect result in data set [13] is “effective”.

As for `N[C@@H](CS)C(=O)O` [cysteine, Cysteine], the radioprotective effect entry in data set [13] was “effective”. In addition, the pKa – broadly, the negative logarithm of the acid dissociation constant – is “approximately 8.5” in data set [14] and 8.44 in data set [14] (listed as CySH).

For the compound `CCCS[S+]([O-])CCC` (stereo not shown) [dipropylthiosulfinate], the nematicidal activity entry in [15] is recorded as “most effective compound found”.

For the compound `N[C@@H](CCC(=O)N[C@@H](CS)C(=O)NCC(=O)O)C(=O)O` [glutathione, Glutathione], the “antioxidant or pro-oxidant activity” value in data set [10] is “most effective antioxidants”. In addition, the radioprotective effect entry in data set [13] is “effective”. Also, in [14], the “pKa of transformation to thiazoline form” value is 5.3 and the pKa entry is reported as “approximately 8.5”.

`N[C@@H](CCS)C(=O)O` [homocysteine]: the radioprotective effect result in [13] is listed as “effective”.

As for `C=CCS[S+](C)[O-]` (stereo not shown) [methyl allyl thiosulfinate], the “activity against E-coli O157:H7” value in data set [16] is “effective against E-coli O157:H7”.

With `CS[S+](C)[O-]` (stereo not shown) [methyl methane thiosulfinate], in data set [16], the “activity against E-coli O157:H7” value was “effective against E-coli O157:H7”.

`O=[N+]([O-])c1ccc([Se]S(=O)(=O)O)cc1` [selenosulfide, pNO2Ph-Se—SO3^−]: the “limit of inhibition of SH-dependent enzyme” value in data set [17] is listed as approximately 50%.

Consider `O=C1O[C@H]([C@@H](O)CO)C(O)=C1O` [vitamin C], for which the “mean percentage decrease of glutathione” value in [18] is reported as 60%.

With S-allylcysteine sulfoxide [alliin], the “effect on Cu2+ induced LDL oxidation” value in [9] is recorded as “significantly reduce”.

Consider “SnO2Ph-Se—S—SO3^− [S-aryl selenenylthiosulphate]”, for which, in [17] (by the first data point), the “inactivation of the enzyme” value was more than 90%.
